In patent US8883415B2, “Aza-benzazolium containing cyanine dyes” (Life Technologies Corporation, priority 1999, dated 2014):
“Also recorded” adds a separate entry of the source.

Key:
Type in all cases: binding
[1] = system: double-stranded DNA; assay: Detecting double-stranded DNA in solution (fluorescence microplate reader)
Protocol: Samples containing 0.1 ng/mL to 1 microgram/mL double-stranded DNA are prepared in 10 mM Tris-HCl, 1 mM EDTA, pH 7.5. The selected dye of the invention is dissolved in DMSO at a concentration of 1-10 mM and then diluted into the same buffer at a concentration sufficient to achieve final optical densities of 0.1 and 0.01 at 500 nm, 530 nm, 540 nm or 560 nm. Equal volumes (100 microliters each) of DNA sample solution and dye solution at each concentration are combined and mixed gently at room temperature in a microplate well.
Samples are allowed to equilibrate for 5-60 minutes, protected from light, and the fluorescence of the sample is measured using a fluorescence microplate reader. DNA concentration is determined by comparison of the sample fluorescence with a standard curve obtained with that dye for each dye concentration. The sensitivity limit of several dyes in this assay is shown (Table 5).

[2] = system: double-stranded bacteriophage λ cl857 DNA that is digested with HindIII restriction endonuclease; assay: Detecting nucleic acids in gels; conditions: POLAROID 667 B&W film; FOTODYNE 254 nm epi.; 1 micromolar dye
[3] = system: double-stranded DNA; assay: Detecting double-stranded DNA in the presence of single-stranded DNA; conditions: nucleic acids 2 micrograms/mL; dye 1 micromolar; excitation 540 nm, emission 570 nm
Protocol: Samples containing nucleic acids at a concentration of 2 micrograms/mL are combined with Compound 16, Compound 22, or Compound 24 at a final dye concentration of 1 micromolar in 10 mM Tris-HCl, 1 mM EDTA, pH 7.5, and mixed gently. The resulting mixture is allowed to incubate for 5-60 minutes at room temperature, protected from light, and sample fluorescence is measured using a fluorescence microplate reader, with excitation at 540 nm and emission at 570 nm. […] If, however, the dye concentration is reduced relative to the concentration of single-stranded nucleic acids, the fluorescence upon binding those nucleic acids increases relative to that of the double-stranded DNA-dye complex. Thus the assay is always performed in sufficient dye excess.

[4] = system: double-stranded bacteriophage λ cl857 DNA that is digested with HindIII restriction endonuclease; assay: Detecting nucleic acids in gels; conditions: 1 micromolar dye
Protocol: DNA samples are loaded onto agarose or polyacrylamide gels and electrophoresed using standard conditions. Selected dyes of the invention are dissolved in DMSO at a concentration of 1-10 micromolar and diluted into 0.5×TBE buffer to a final concentration of 1 micromolar dye. Gels are incubated for 20-90 minutes in this staining solution, with gentle agitation, at room temperature, protected from light. Nucleic acids are visualized by transillumination at 300 nm, followed by direct visual detection or photography using Polaroid black-and-white print film. Nucleic acids are alternatively visualized by scanning using a FMBIO II laser scanner with a 532 nm frequency-doubled YAG laser source or a charge-coupled device camera system coupled with an ultraviolet (300 nm) light source, or a visible light transilluminator.

[5] = system: Escherichia coli ribosomal RNA; assay: Detecting RNA in solution; conditions: Excitation 530 nm/Emission 560 nm
Protocol: (§1) Selected dyes of the invention are dissolved in DMSO at 1-10 micromolar concentration, then diluted into 10 mM Tris-HCl, 1 mM EDTA, pH 7.5 to a final optical density of 0.1 or 0.01 at 530 nm or 540 nm. These dye solutions are combined with an equal volume of Escherichia coli ribosomal RNA at concentrations ranging from 0.25 ng/mL to 1 microgram/mL in microplate wells. The resulting mixtures are mixed gently and incubated for 5-60 minutes at room temperature, protected from light, and the sample fluorescence is measured.

[6] = system: 18-base oligodeoxynucleotide sequencing primer; assay: Detecting oligonucleotides in solution; conditions: Excitation 530 nm/Emission 560 nm
Protocol: as §1, with “The resulting” for “These”, “an 18-base oligodeoxynucleotide sequencing primer solution” for “Escherichia coli ribosomal RNA”, “of 0.1” for “ranging from 0.25”, “the same buffer.” for “microplate wells.”, “mixture is” for “mixtures are”, “measured in a fluorescence microplate reader.” for “measured.”

[7] = Excitation 560 nm/Emission 585 nm
[8] = Excitation 500 nm/Emission 560 nm
[9] = Excitation 540 nm/Emission 570 nm
[10] = BOEHRINGER MANNHEIM LUMIIMAGER CCD, 300 nm trans., 520 nm em.
[11] = BOEHRINGER MANNHEIM LUMIIMAGER CCD, 300 nm trans., 545 nm em
[12] = HITACHI FMBIO II laser scanner, 532 nm freq.-doubled YAG laser
[13] = POLAROID 667 B&W film, FOTODYNE 300 nm trans.
[14] = Excitation 530 nm/Emission 560 nm

CN1C=C/C(=C\c2nc3c(cc(Cl)c[n+]3C)s2)c2ccccc21.[I-] [Compound 38]
Sensitivity Limit, High dye concentration (0.1 OD) [1, 7]: 200 ng/mL
Sensitivity Limit, Low dye concentration (0.01 OD) [1, 7]: 5.0 ng/mL

COC1=C/C(=C\c2nc3c(ccc[n+]3C)o2)c2ccccc2N1C [Compound 54]
Sensitivity Limit, High dye concentration (0.1 OD) [1, 8]: 10 ng/mL
Sensitivity Limit, Low dye concentration (0.01 OD) [1, 8]: 1.0 ng/mL

CN1C=C/C(=C\c2nc3c(cc(Cl)c[n+]3C)s2)c2ccccc21.[I-] [Compound 40]
Sensitivity Limit, High dye concentration (0.1 OD) [1, 7]: 10 ng/mL
Sensitivity Limit, Low dye concentration (0.01 OD) [1, 7]: 1.0 ng/mL

CCN(CC)Cc1ccc(C2=C/C(=C\c3nc4c(ccc[n+]4C)o3)c3ccccc3N2C)cc1.[I-] [Compound 22]
Sensitivity for detecting double-stranded DNA in agarose gels [2]: 30 pg
Preferential fluorescent staining of double-stranded DNA in the presence of single-stranded DNA and RNA [3]: preferential fluorescent staining of double-stranded DNA; also recorded: detected preferentially
Sensitivity Limit, High dye concentration (0.1 OD) [1, 9]: 10 ng/mL
Sensitivity Limit, Low dye concentration (0.01 OD) [1, 9]: 1.0 ng/mL
Sensitivity for detecting double-stranded DNA in agarose gels [4, 10]: 830 pg
Sensitivity for detecting double-stranded DNA in agarose gels [4, 11]: 50 pg
Sensitivity for detecting double-stranded DNA in agarose gels [4, 12]: 7 pg
Sensitivity for detecting double-stranded DNA in agarose gels ([4]; POLAROID 667 B&W film, DARK READER visible light box): 60 pg
Sensitivity for detecting double-stranded DNA in agarose gels [4, 13]: 120 pg

CN1C=C/C(=C\c2nc3cc[n+](C)cc3o2)c2ccccc21.[I-] [Compound 31]
Sensitivity Limit, High dye concentration (0.1 OD) [1, 14]: 50 ng/mL
Sensitivity Limit, Low dye concentration (0.01 OD) [1, 14]: 2.0 ng/mL

CCN1C(c2ccccc2)=C/C(=C\c2nc3c(ccc[n+]3C)o2)c2cc3c(cc21)OCO3.[I-] [Compound 18]
Sensitivity for detecting double-stranded DNA in agarose gels [2]: 60 pg
Sensitivity Limit, High dye concentration (0.1 OD) [5]: 10 ng/mL
Sensitivity Limit, Low dye concentration (0.01 OD) [5]: 1.2 ng/mL
Sensitivity Limit, High dye concentration (0.1 OD) [6]: <10 ng/mL
Sensitivity Limit, Low dye concentration (0.01 OD) [6]: >10 ng/mL
Sensitivity Limit, High dye concentration (0.1 OD) [1, 14]: <10 ng/mL
Sensitivity Limit, Low dye concentration (0.01 OD) [1, 14]: 0.2 to 0.5 ng/mL
Sensitivity for detecting double-stranded DNA in agarose gels [4, 10]: 210 pg
Sensitivity for detecting double-stranded DNA in agarose gels [4, 11]: 100 pg
Sensitivity for detecting double-stranded DNA in agarose gels [4, 12]: 50 pg
Sensitivity for detecting double-stranded DNA in agarose gels [4, 13]: 120 pg

COc1ccc2c(c1)N(C)C(c1ccccc1)=C/C2=C\c1nc2c(ccc[n+]2C)o1.[I-] [Compound 21]
Sensitivity for detecting double-stranded DNA in agarose gels [2]: 60 pg
Sensitivity Limit, High dye concentration (0.1 OD) [1, 14]: <10 ng/mL
Sensitivity Limit, Low dye concentration (0.01 OD) [1, 14]: 0.2 ng/mL
Sensitivity for detecting double-stranded DNA in agarose gels [4, 10]: 420 pg
Sensitivity for detecting double-stranded DNA in agarose gels [4, 11]: 50 pg
Sensitivity for detecting double-stranded DNA in agarose gels [4, 12]: 50 pg
Sensitivity for detecting double-stranded DNA in agarose gels [4, 13]: 120 pg

CN1C=C/C(=C\c2nc3c(cc(Cl)c[n+]3C)s2)c2ccccc21.[I-] [Compound 37]
Sensitivity Limit, High dye concentration (0.1 OD) [1, 7]: 10 ng/mL
Sensitivity Limit, Low dye concentration (0.01 OD) [1, 7]: 2.0 ng/mL

CN1C=C/C(=C\c2nc3c(ccc[n+]3C)o2)c2ccccc21.Cc1ccc(S(=O)(=O)[O-])cc1 [Compound 48]
Sensitivity Limit, High dye concentration (0.1 OD) [1, 8]: 10 ng/mL
Sensitivity Limit, Low dye concentration (0.01 OD) [1, 8]: >10 ng/mL

CN1C(Cl)=C/C(=C\c2nc3c(cc(Cl)c[n+]3C)s2)c2ccccc21.[Cl-] [Compound 41]
Sensitivity Limit, High dye concentration (0.1 OD) [1, 7]: 10 ng/mL
Sensitivity Limit, Low dye concentration (0.01 OD) [1, 7]: >10 ng/mL

CCN(CC)C1=C/C(=C\c2nc3c(ccc[n+]3C)o2)c2ccccc2N1c1ccccc1 [Compound 30]
Sensitivity Limit, High dye concentration (0.1 OD) [1, 14]: 10 ng/mL
Sensitivity Limit, Low dye concentration (0.01 OD) [1, 14]: 1.0 ng/mL
